Assay results taken from patent publication US8546590B2, “Polar dyes” (Cepheid, priority 2005, dated 2013).

Experiments:
[1] = Degradation/deprotection of arsonate ester-protected dye in aqueous buffers (Method G, HPLC); assay type: physicochemical; details: for stability in aqueous buffers: range of pH 1.6-7.5 in aqueous buffers
Protocol: (§1) Measuring of Degradation/Deprotection Rate of Arsonate Esters-protected Dye.
(§2) A protected dye (1 mg) and Methyl Red dye (0.5 mg, internal standard, λmax 482 nm) were dissolved in MeOH (5 mL) and mixed with a buffer or 25% aqueous ammonia (45 mL). Samples (1 mL) were taken over a period of degradation. The samples were quickly placed under vacuum to remove ammonia and redissolved in MeOH or used directly for HPLC analysis in buffers in a range of pH 1.6 (0.1% trifluoroacetic acid)-7.5 (0.1 M triethylammonium acetate). HPLC analysis was performed on Phenomenex Gemini 5 um C18 110A column (250×4.6 mm) using 0-100% gradient of MeCN in 0.1M triethylammonium acetate (pH 7.5) buffer. The chromatogram was detected in a range 200-600 nm using Varian ProStar PDA detector. Calculations of the relative concentrations were performed based on peaks area at 520 nm. An internal standard gives a peak at 8.6 min (λmax 482 nm).

[2] = Degradation/deprotection of arsonate ester-protected dye in 25% aqueous ammonia (Method G, HPLC); assay type: physicochemical
Protocol: as §1, §2
FIG. 12 illustrates an example of a typical kinetic curve corresponding to the base-induced deprotection of a bis-pinacol protected azodye.

[3] = 25% aqueous ammonia, room temperature

SMILES	degradation in acidic conditions ([1]; acidic conditions, aqueous buffers)	time after which practically full deprotection was observed ([1]; buffer, room temperature, pH 7.5) [h]	degradation at pH 7.5 ([1]; pH 7.5 aqueous buffer)	stability in aqueous buffers [1]	Rate of full degradation (τ1/2) ([1]; room temperature and pH 7.5 buffer)	stability / degradation in 25% aqueous ammonia ([2]; 25% aqueous ammonia)	Rate of degradation (τ1/2) [2, 3]	degradation of the compound observed ([2]; over 3 days period, 25% aqueous ammonia at room temperature (and pH 1.6-7.5 buffers))	Rate of full degradation (τ1/2) [2, 3]	time after which practically full deprotection was observed [2, 3] [h]
CN(C)c1ccc(N=Nc2ccc([As]3(=O)OC(=O)C(C)(C)O3)cc2)cc1 (stereo not drawn) [Example 13, [4-(4′-Dimethylaminophenylazo)phenyl]arsonic acid, chelate with 2-hydroxy-isobutyric acid]	degrades instantly	2	within minutes	very unstable	approximately 10 min	–	–	–	–	–
CN(C)c1ccc(N=Nc2ccc([As]34(OC(C)(C)C(C)(C)O3)OC(C)(C)C(C)(C)O4)cc2)cc1 [Example 11, [4-(4′-Dimethylaminophenylazo)phenyl]arsonic acid bis-pinacolate]	–	–	–	stable	–	degrades	approximately 3 hr	–	–	–
CN(C)c1ccc(N=Nc2ccc([As]34(Oc5ccccc5O3)Oc3ccccc3O4)cc2)cc1 [Example 14, [4-(4′-Dimethylaminophenylazo)phenyl]arsonic acid bis-catechol chelate]	–	–	–	very stable	–	very stable	–	No degradation	–	–
CN(C)c1ccc(N=Nc2ccc([As]3(=O)OC(C)(C)CC(C)(C)O3)cc2)cc1 [Example 12, [4-(4′-Dimethylaminophenylazo)phenyl]arsonic acid 2,4-dimethyl-2,4-pentanediol chelate]	–	–	–	relatively stable	–	degrades quickly	–	–	approximately 15 min	4
